How the values were obtained:
S. aureus Newman = assay: Bliss interaction score (quartile over a dose matrix) (fitness difference); higher = more antagonism (negative = synergy)
How it was run: (§1)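 The Bliss score subtracts expected fitness, the product of the single-drug fitness values, from observed fitness. Fitness is plate-normalised OD595 at entry into stationary phase, relative to the robust no-drug mean and capped at 1, with single-drug fitness inferred from combinations. Summaries are quartiles over technical, biological and donor/recipient replicates.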

S. pneumoniae D39V [1] = assay: as above
How it was run: as §1

S. aureus DSM 20231 = assay: as above
How it was run: as §1

B. subtilis 168 = assay: as above
How it was run: as §1

S. pneumoniae D39V [2] = assay: fitness (endpoint OD595 vs no drug) (fraction); higher = more growth
How it was run: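 Fitness was defined as the optical density at the transition into stationary phase relative to the robust mean of no-drug control wells. Values were capped at 1. Cultures were started at OD595 0.01 in 384-well plates (30 µl, or 55 µl for S. pneumoniae) in TSB, LB Lennox or CY at 37 °C. OD595 was recorded every 30 min over 14 h, with the first reading subtracted as background.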
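For Bliss interaction score (quartile over a dose matrix) in this document: first quartile when negative (synergy) and third quartile when positive (antagonism).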

CC(=O)NC[C@H]1CN(c2ccc(N3CCOCC3)c(F)c2)C(=O)O1 [Linezolid] + C/C(=C\C(=O)OCCCCCCCCC(=O)O)C[C@@H]1OC[C@H](C[C@@H]2O[C@H]2[C@@H](C)[C@H](C)O)[C@@H](O)[C@H]1O [Pseudomonic acid]
Settings | Bliss interaction score
B. subtilis 168 | -0.0357
S. aureus DSM 20231 | 0.0202
S. aureus Newman | 0.0446
S. pneumoniae D39V [1] | 0.121

fitness, S. pneumoniae D39V [2]
Settings | first compound 0.2 µg/mL | first compound 0.4 µg/mL | first compound 0.42 µg/mL | first compound 0.8 µg/mL
partner 0.03 µg/mL | 0.862 | 0.731 | 0.275 | 0.411
partner 0.06 µg/mL | 0.796 | 0.753 | 0.233 | –
partner 0.12 µg/mL | 0.626 | 0.611 | 0.183 | 0.427

CC(=O)NC[C@H]1CN(c2ccc(N3CCOCC3)c(F)c2)C(=O)O1 [Linezolid] + CO[C@H]1/C=C/O[C@@]2(C)Oc3c(C)c(O)c4c(O)c(c(/C=N/N5CCN(C)CC5)c(O)c4c3C2=O)NC(=O)/C(C)=C\C=C\[C@H](C)[C@H](O)[C@@H](C)[C@@H](O)[C@@H](C)[C@H](OC(C)=O)[C@@H]1C [Rifampicin]
Settings | Bliss interaction score
B. subtilis 168 | -0.0404
S. aureus DSM 20231 | -0.0505
S. aureus Newman | -0.0225
S. pneumoniae D39V [1] | -0.0681

fitness, S. pneumoniae D39V [2]
Settings | first compound 0.105 µg/mL | first compound 0.2 µg/mL | first compound 0.21 µg/mL | first compound 0.42 µg/mL | first compound 0.8 µg/mL
partner 0.05 µg/mL | – | 0.69 | 0.182 | 0.171 | 0.348
partner 0.1 µg/mL | 0.17 | – | 0.135 | 0.103 | 0.216
partner 0.2 µg/mL | 0.127 | – | 0.0997 | 0.113 | –

fitness, S. pneumoniae D39V [2], one replicate
Settings | first compound 0.2 µg/mL | first compound 0.4 µg/mL | first compound 0.8 µg/mL
partner 0.025 µg/mL | 0.809 | 0.685 | 0.298
partner 0.2 µg/mL | 0 | 0 | 0

CC(=O)NC[C@H]1CN(c2ccc(N3CCOCC3)c(F)c2)C(=O)O1 [Linezolid] + Clc1ccc(COC(Cn2ccnc2)c2ccc(Cl)cc2Cl)c(Cl)c1 [Miconazole]
Settings | Bliss interaction score
B. subtilis 168 | 0.047
S. aureus DSM 20231 | -0.0366
S. aureus Newman | -0.0524
S. pneumoniae D39V [1] | 0.199

fitness, S. pneumoniae D39V [2]
Settings | first compound 0.105 µg/mL | first compound 0.2 µg/mL | first compound 0.21 µg/mL | first compound 0.4 µg/mL | first compound 0.42 µg/mL | first compound 0.8 µg/mL
partner 1.073 µg/mL | – | 0.924 | – | 0.751 | – | 0.431
partner 1.25 µg/mL | 0.835 | – | 0.653 | – | 0.566 | –
partner 2.145 µg/mL | – | 0.929 | – | 0.765 | – | 0.428
partner 2.5 µg/mL | 0.807 | – | 0.691 | – | 0.524 | –
partner 4.29 µg/mL | – | 0.957 | – | 0.804 | – | 0.54
partner 5 µg/mL | 0.842 | – | 0.74 | – | 0.502 | –
